The values below are quoted from earlier work in patent US20100189788A1 (Teva Pharmaceutical Industries, Ltd., priority 2009, published 2010).

The conditions of this data set: such as hexane toluene and ethylacetate; in words.

With `C#CCN[C@@H]1CCc2ccccc21` [rasagiline, R(+)-N-propargyl-1-aminoindan], the “solubility in non-polar organic solvents” value is given as “very soluble”.
